What was measured:
diseased maize = experiment: Field trial, yield of diseased maize; type: in vivo; conditions: for Yield: 11% moisture
Experimental: (§1) In this example, diseased maize having Southern Rust of Maize (Puccinia polysora) was treated with BAG8, Azoxystrobin, and Boscalid. Testing was performed to assess the fungicidal effect of the compounds on Southern Rust of Maize (Puccinia polysora) and to assess the growth enhancing effect of the compounds on the diseased maize.
(§2) Maize was planted into 6×30 ft plots and replicated four times in a randomized complete block design. Three treatments and an untreated control were tested for efficacy against Southern Rust of Maize (Puccinia polysora) and assessed for yield at the conclusion of the growing season. Foliar applications of the three treatments, BAG8 at 0.25 pounds of active ingredient per acre, azoxystrobin at 0.25 pounds of active ingredient per acre, and boscalid at 0.24 pounds of active ingredient per acre, were applied to the plots at growth stage V8. Best practices were used consistently across the test plots with regard to field conditions such as fertilization, insect control, weed control, and irrigation. Disease assessments were taken in each plot 28 days after the foliar fungicide application. At maturity, each plot was harvested using standard harvesting equipment. After shelling, the kernels were weighed at 11% moisture and yield calculations extrapolated to bushels per acre.
(§3) Analysis of variance (ANOVA) was used to examine disease severity data and means were separated using Fisher's least significant difference (LSD) method at α=0.05. […]

[1] = tested on: Southern Rust of Maize (Puccinia polysora); experiment: Field trial, Southern Rust of Maize severity on maize; type: in vivo
Experimental: as §1, §2, §3

[2] = tested on: Asian Soybean Rust (Phakopsora pachyrhizi); experiment: Field trial, Asian Soybean Rust severity on soybean; type: in vivo
Experimental: (§4) In this example, diseased soybeans having Asian Soybean Rust (Phakopsora pachyrhizi) were treated with BAG8 and Azoxystrobin. Testing was performed to assess the fungicidal effect of the compounds on Asian Soybean Rust and to assess the growth enhancing effects of the compounds on the diseased soybeans.
(§5) Soybeans were planted into 6×30 ft plots and replicated four times in a randomized complete block design. Two treatments and an untreated control were tested for efficacy against Asian Soybean Rust (Phakopsora pachyrhizi) and assessed for yield at the conclusion of the growing season. Foliar applications of the two treatments, BAG8 at 0.25 pounds of active ingredient per acre and azoxystrobin at 0.25 pounds of active ingredient per acre, were applied to the plots at two separate times: growth stage R1 (flowering) and growth stage R3 (bean pod formation). Best practices were used consistently across the test plots with regard to field conditions such as fertilization, insect control, weed control, and irrigation. Disease assessments were taken in each plot 28 days after the final foliar fungicide application. At maturity, each plot was harvested using standard harvesting equipment. After shelling, the beans were weighed at 13% moisture and yield calculations extrapolated to bushels per acre.
as §3

diseased soybeans = experiment: Field trial, yield of diseased soybeans; type: in vivo, soybean
Experimental: as §4, §5, §3

Tomato = conditions: Davis et al. 2003, cited from earlier work

CO/C=C(/C(=O)OC)c1ccccc1Oc1cc(Oc2ccccc2C#N)ncn1 [Azoxystrobin, reference compound]
increased yield relative to untreated control (diseased maize; 0.25 lb ai/A foliar): 205% | Yield (diseased maize; 0.25 lb ai/A foliar at V8, harvest at maturity): 151.1 a bu/A | reduced disease relative to the untreated control ([1]; 0.25 lb ai/A foliar): 100% | Disease Severity (% Leaf Coverage) ([1]; 0.25 lb ai/A foliar at V8, 28 days after application): 0.0 c % Leaf Coverage | reduced disease in comparison to untreated control ([2]; 0.25 lb ai/A foliar): 66% | Disease Severity (% Leaf Coverage) ([2]; 0.25 lb ai/A foliar at R1 and R3, 28 days after final application): 30.6 d % Leaf Coverage | increased soybean yield (diseased soybeans; 0.25 lb ai/A foliar): 305% | Yield (diseased soybeans; 0.25 lb ai/A foliar at R1 and R3, harvest at maturity, 13% moisture): 59.2 a bu/A

O=C(Nc1ccccc1-c1ccc(Cl)cc1)c1cccnc1Cl [Boscalid]
Yield (diseased maize; 0.24 lb ai/A foliar at V8, harvest at maturity): 91.6 c bu/A | Disease Severity (% Leaf Coverage) ([1]; 0.24 lb ai/A foliar at V8, 28 days after application): 25.1 b % Leaf Coverage

OB(O)O [boric acid]
yield and shelf-life of harvested tomatoes (Tomato): higher yield and longer shelf-life for harvested tomatoes | growth of the plant (Tomato; hydroponic fertilizer): increased growth of the plant, plant parts, and plant propagation materials
